Experimental data published in the supplement of paper PMC10721915.

How the values were obtained:
Experiment in all cases: relative cell growth vs untreated control (GI, NCI-DTP normalisation with time-zero) (fraction of control growth); higher = more growth / less inhibition
Conditions in all cases: treatment time: 120 h
[1] = test system: A204
Procedure: (§1)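 Cancer cell lines in 96-well plates were treated 48 h after seeding with M4076 (ATM inhibitor) and berzosertib (ATR inhibitor), alone or mixed, in 4-fold dilutions for 120 h. Protein was read by sulforhodamine B staining, background-subtracted and normalised NCI-DTP style to untreated control growth. Rows with one concentration equal to 0 are monotherapy.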

[2] = test system: MIAPACA2
Procedure: as §1

[3] = test system: MDAMB436
Procedure: as §1

[4] = test system: LOVO
Procedure: as §1

[5] = test system: IGROV1
Procedure: as §1

[6] = test system: NCIH460
Procedure: as §1

[7] = test system: U87MG
Procedure: as §1

COc1cc2ncc3c(c2cc1-c1cn(C)nc1C)n(-c1c(F)cncc1OC)c(=O)n3C [M4076] + CNCc1ccc(-c2cc(-c3nc(-c4ccc(S(=O)(=O)C(C)C)cc4)cnc3N)on2)cc1 [berzosertib]
relative cell growth
Conditions	[1]	[2]	[3]	[4]	[5]	[6]	[7]
concentration of first compound 0.0195 µM, concentration of partner 0 M	1.25	1.08	1.1	1.25	1.27	1.14	1.1
concentration of first compound 0.0195 µM, concentration of partner 0.2 µM	0.675	0.643	0.856	0.105	0.543	0.607	0.891
concentration of first compound 0.0781 µM, concentration of partner 0 M	1.16	1.17	1.15	1.21	1.36	1.16	1.12
concentration of first compound 0.0781 µM, concentration of partner 0.2 µM	0.9	0.542	0.625	0.209	0.527	0.678	0.839
concentration of first compound 0.313 µM, concentration of partner 0 M	1.1	1.03	0.941	1.09	1.18	1.14	1.09
concentration of first compound 0.313 µM, concentration of partner 0.2 µM	0.654	0.269	0.374	0.0984	0.376	0.354	0.682
concentration of first compound 1 µM, concentration of partner 0 M	0.83	1.08	0.753	0.971	0.9	0.972	0.966
concentration of first compound 1 µM, concentration of partner 0.0195 µM	0.965	0.891	0.817	0.763	0.964	0.969	0.944
concentration of first compound 1 µM, concentration of partner 0.0781 µM	0.785	0.439	0.574	0.508	0.604	0.79	0.82
concentration of first compound 1 µM, concentration of partner 0.313 µM	0.205	0.061	0.148	-0.0419	0.0905	0.0691	0.343
concentration of first compound 1 µM, concentration of partner 1.25 µM	-0.0708	0.0345	-0.0222	-0.0608	-0.0208	-0.00904	0.0996
concentration of first compound 1 µM, concentration of partner 5 µM	-0.102	-0.0126	-0.02	-0.0633	-0.0274	-0.0222	0.134
concentration of first compound 1.25 µM, concentration of partner 0 M	0.914	1.18	0.84	1.1	1.02	1.11	1.01
concentration of first compound 1.25 µM, concentration of partner 0.2 µM	0.685	0.126	0.292	-0.000928	0.327	0.199	0.505
concentration of first compound 5 µM, concentration of partner 0 M	0.524	1.09	0.684	0.981	0.48	1.06	0.853
concentration of first compound 5 µM, concentration of partner 0.2 µM	0.337	0.157	0.206	-0.0311	0.0986	0.203	0.381

CNCc1ccc(-c2cc(-c3nc(-c4ccc(S(=O)(=O)C(C)C)cc4)cnc3N)on2)cc1 [berzosertib] + COc1cc2ncc3c(c2cc1-c1cn(C)nc1C)n(-c1c(F)cncc1OC)c(=O)n3C [M4076]
relative cell growth, concentration of partner 0 M
Conditions	[1]	[2]	[3]	[4]	[5]	[6]	[7]
concentration of first compound 0.0195 µM	1.15	1.06	1.03	1.07	1.15	1.12	1.09
concentration of first compound 0.0781 µM	1.06	0.974	1.13	0.826	1.01	1.09	1.07
concentration of first compound 0.2 µM	0.623	0.661	0.673	0.211	0.468	0.607	0.8
concentration of first compound 0.313 µM	0.583	0.235	0.386	0.0258	0.129	0.357	0.677
concentration of first compound 1.25 µM	-0.0148	0.0129	0.0232	-0.0498	-0.0355	0.0867	0.185
concentration of first compound 5 µM	-0.0897	-0.0366	-0.0352	-0.0599	-0.0657	0.0406	0.195
